Experimental data as given in ChEMBL document CHEMBL4368860, “Structure activity relationship of 2-arylalkynyl-adenine derivatives as human A3 adenosine receptor antagonists” (Medchemcomm, 2018).

Columns and labels:
Adenosine receptor A2a [1] = biological target: T1, Adenosine receptor A2a (Homo sapiens, UniProt P29274); experiment: Displacement of [3H]ZM241385 from human A2A receptor expressed in HEK293 cell membranes
[2] = Displacement of [3H]DPCPX from pig A1 receptor; set-up: species or system Sus scrofa
Adenosine receptor A2a [3] = biological target: T1, Adenosine receptor A2a; experiment: Displacement of [3H]ZM241385 from human A2A receptor expressed in HEK293 cell membranes at 10 uM; conditions: HEK293 cell membranes expressing human A2A receptor, probe [3H]ZM241385
[4] = biological target: Sigma non-opioid intracellular receptor 1 (Cavia porcellus, UniProt Q60492); experiment: Displacement of [3H]-(+)-pentazocine from sigma-1 receptor in guinea pig by radioligand binding assay
[5] = biological target: T2, Adenosine receptor A1 (Homo sapiens) (UniProt P30542); experiment: Displacement of [3H]DPCPX from recombinant human A1 receptor expressed in CHO cell membranes at 10 uM
T2 sequence (whole entry): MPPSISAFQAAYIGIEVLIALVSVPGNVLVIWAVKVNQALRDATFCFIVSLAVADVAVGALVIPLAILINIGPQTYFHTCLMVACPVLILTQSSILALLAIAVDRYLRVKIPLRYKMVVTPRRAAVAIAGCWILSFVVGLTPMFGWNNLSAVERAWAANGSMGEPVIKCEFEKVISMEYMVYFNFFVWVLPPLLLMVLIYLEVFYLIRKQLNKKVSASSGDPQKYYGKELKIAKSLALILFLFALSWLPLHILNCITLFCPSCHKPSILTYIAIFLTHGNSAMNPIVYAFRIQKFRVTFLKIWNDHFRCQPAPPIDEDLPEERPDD

D(1A) dopamine receptor = D(1A) dopamine receptor (Homo sapiens, UniProt P21728); experiment: Displacement of [3H]SCH23390 from human dopamine D1 receptor expressed in HEK293T cell membranes by radioligand binding assay
Adenosine receptor A3 [6] = biological target: T3, Adenosine receptor A3 (Homo sapiens, UniProt P0DMS8); experiment: Displacement of [125I]I-AB-MECA from recombinant human adenosine A3 receptor expressed in CHO cell membranes
T3 sequence (P0DMS8 whole entry): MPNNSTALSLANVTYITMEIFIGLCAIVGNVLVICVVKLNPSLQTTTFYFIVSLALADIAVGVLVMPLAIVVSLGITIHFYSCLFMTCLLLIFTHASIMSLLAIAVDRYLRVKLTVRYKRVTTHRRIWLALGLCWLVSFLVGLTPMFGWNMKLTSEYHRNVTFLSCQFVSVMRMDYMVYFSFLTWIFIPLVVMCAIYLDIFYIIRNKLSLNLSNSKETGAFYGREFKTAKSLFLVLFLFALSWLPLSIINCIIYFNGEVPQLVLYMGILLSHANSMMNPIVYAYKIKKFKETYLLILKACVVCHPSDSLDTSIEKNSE

[7] = biological target: Alpha-2C adrenergic receptor (Homo sapiens, UniProt P18825); experiment: Displacement of [3H]Rauwolscine from human alpha 2C adrenergic receptor expressed in MDCK cells by radioligand binding assay; type: cell-based
Adenosine receptor A3 [8] = biological target: T3, Adenosine receptor A3; experiment: Antagonist activity at human A3AR expressed in CHO cells assessed as suppression of NECA-induced reduction in cAMP accumulation; type: functional, cell-based
Adenosine receptor A1 = biological target: T4, Adenosine receptor A1 (Homo sapiens, UniProt P30542); experiment: Displacement of [3H]DPCPX from recombinant human A1 receptor expressed in CHO cell membranes
T4 sequence (P30542 whole entry): T2 sequence (whole entry)

Adenosine receptor A3 [9] = biological target: Adenosine receptor A3 (Mus musculus, UniProt Q61618); experiment: Displacement of [125I]I-AB-MECA from recombinant mouse adenosine A3 receptor expressed in HEK293 cell membranes
[10] = biological target: Sigma intracellular receptor 2 (Homo sapiens, UniProt Q5BJF2); experiment: Displacement of [3H]-DTG from human sigma 2 receptor
[11] = biological target: Sodium-dependent noradrenaline transporter (Homo sapiens, UniProt P23975); experiment: Displacement of [3H]Nisoxetine from human NET expressed in HEK cells by radioligand binding assay; type: cell-based
Homo sapiens = organism: Homo sapiens; experiment: Selectivity ratio of Ki for displacement of [125I]I-AB-MECA from recombinant mouse adenosine A3 receptor expressed in HEK293 cell membranes to Ki for displacement of [125I]I-AB-MECA from recombinant human adenosine A3 receptor
Adenosine receptor A2a [12] = biological target: Adenosine receptor A2a (Mus musculus, UniProt Q60613); experiment: Displacement of [3H]ZM241385 from mouse A2A receptor at 10 uM; conditions: probe [3H]ZM241385
[13] = biological target: Adenosine receptor A1 (Mus musculus) (UniProt Q60612); experiment: Displacement of [3H]DPCPX from mouse A1 receptor at 10 uM
Adenosine receptor A1 (Mus musculus), sequence (Q60612 whole entry): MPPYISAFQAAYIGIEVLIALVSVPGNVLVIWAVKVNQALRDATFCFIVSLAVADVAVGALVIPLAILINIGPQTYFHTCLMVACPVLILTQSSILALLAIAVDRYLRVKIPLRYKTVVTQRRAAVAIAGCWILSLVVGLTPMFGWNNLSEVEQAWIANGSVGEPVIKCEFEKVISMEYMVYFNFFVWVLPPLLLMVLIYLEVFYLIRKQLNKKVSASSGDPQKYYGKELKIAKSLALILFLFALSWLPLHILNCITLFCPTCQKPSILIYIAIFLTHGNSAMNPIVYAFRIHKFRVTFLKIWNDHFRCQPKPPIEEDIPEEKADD

T1 sequence (P29274 whole entry): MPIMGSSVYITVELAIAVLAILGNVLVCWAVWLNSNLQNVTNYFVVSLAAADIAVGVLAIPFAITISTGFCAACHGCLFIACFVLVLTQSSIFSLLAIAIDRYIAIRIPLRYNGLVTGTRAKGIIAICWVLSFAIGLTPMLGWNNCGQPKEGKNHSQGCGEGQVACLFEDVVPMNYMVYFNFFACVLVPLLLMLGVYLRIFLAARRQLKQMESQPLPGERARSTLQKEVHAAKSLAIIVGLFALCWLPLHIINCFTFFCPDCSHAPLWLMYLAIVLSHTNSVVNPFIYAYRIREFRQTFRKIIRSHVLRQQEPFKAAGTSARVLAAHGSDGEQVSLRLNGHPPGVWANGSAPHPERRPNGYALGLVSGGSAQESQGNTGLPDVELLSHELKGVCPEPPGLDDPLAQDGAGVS
D(1A) dopamine receptor, sequence (P21728 whole entry): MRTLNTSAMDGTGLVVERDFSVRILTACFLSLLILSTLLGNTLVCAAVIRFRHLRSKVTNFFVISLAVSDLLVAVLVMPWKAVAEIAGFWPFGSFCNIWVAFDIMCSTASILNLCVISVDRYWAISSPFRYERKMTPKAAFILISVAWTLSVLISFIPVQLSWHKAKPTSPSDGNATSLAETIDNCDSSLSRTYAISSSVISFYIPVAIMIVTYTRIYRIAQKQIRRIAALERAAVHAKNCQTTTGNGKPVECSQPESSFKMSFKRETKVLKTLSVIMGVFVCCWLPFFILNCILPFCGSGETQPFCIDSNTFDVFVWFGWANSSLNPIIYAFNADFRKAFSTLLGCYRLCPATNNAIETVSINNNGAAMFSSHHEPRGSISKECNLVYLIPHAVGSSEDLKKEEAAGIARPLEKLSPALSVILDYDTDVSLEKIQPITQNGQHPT
Adenosine receptor A2a (Mus musculus, UniProt Q60613), sequence (Q60613 whole entry): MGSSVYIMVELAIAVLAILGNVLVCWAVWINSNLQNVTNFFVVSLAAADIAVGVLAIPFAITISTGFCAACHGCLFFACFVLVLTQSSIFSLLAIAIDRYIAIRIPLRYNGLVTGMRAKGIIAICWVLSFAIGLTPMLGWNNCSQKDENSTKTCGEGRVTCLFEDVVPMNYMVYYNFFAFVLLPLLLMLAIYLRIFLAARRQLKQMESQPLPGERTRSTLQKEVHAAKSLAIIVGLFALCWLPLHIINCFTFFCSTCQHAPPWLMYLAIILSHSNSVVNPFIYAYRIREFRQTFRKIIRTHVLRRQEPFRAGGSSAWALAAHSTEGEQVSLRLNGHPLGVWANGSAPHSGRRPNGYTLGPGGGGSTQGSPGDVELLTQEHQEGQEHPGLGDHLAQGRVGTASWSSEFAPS
Sigma non-opioid intracellular receptor 1, sequence (Q60492 whole entry): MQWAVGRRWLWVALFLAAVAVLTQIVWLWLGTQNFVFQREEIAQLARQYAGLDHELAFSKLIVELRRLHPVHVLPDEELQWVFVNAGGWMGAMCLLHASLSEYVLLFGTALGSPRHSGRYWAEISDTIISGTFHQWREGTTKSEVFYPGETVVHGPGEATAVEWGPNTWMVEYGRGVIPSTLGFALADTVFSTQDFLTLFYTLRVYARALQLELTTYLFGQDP
Alpha-2C adrenergic receptor, sequence (P18825 whole entry): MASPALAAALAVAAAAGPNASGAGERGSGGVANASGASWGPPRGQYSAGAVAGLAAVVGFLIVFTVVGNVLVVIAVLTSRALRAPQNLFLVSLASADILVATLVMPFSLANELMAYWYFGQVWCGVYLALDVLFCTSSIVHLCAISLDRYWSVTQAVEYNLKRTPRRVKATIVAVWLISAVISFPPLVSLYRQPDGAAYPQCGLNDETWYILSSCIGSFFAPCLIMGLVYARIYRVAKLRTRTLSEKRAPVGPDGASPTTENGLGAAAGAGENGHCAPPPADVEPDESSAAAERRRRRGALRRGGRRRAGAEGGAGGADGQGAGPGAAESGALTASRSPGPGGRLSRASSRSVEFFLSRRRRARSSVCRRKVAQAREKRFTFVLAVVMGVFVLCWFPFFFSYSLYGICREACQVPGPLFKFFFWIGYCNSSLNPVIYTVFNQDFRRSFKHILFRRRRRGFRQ
Sodium-dependent noradrenaline transporter, sequence (P23975 whole entry): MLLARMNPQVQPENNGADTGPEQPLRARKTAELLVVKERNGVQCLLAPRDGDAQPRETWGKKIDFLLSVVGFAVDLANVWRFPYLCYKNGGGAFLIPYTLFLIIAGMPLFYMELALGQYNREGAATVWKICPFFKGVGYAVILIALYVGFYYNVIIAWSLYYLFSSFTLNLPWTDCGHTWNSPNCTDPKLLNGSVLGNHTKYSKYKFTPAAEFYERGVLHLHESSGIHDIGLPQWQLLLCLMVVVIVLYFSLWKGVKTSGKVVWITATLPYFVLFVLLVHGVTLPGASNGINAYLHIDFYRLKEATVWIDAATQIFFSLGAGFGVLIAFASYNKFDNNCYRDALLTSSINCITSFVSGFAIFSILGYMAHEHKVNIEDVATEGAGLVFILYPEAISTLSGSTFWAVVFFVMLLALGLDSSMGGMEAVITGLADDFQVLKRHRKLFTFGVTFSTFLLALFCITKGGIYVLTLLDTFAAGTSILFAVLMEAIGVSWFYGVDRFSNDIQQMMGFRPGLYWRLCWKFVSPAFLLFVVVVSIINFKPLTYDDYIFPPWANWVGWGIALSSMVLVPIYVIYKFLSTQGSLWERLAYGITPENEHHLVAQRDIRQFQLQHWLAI
Adenosine receptor A3 (Mus musculus, UniProt Q61618), sequence (Q61618 whole entry): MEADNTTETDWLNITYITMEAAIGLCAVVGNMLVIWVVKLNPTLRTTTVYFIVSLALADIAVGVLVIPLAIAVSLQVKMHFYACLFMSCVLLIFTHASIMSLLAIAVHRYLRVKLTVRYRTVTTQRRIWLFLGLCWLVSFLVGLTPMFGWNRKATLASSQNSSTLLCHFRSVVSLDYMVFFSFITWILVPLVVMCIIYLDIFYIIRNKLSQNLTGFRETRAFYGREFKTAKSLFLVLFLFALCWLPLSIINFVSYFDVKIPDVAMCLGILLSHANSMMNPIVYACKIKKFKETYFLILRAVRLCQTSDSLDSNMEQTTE
Sigma intracellular receptor 2, sequence (Q5BJF2 whole entry): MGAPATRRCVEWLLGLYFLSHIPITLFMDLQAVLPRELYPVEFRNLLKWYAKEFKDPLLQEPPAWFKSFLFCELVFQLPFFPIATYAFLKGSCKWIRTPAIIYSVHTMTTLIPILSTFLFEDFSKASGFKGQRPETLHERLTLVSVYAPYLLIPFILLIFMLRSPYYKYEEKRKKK

In the case of `OC[C@H]1O[C@@H](n2cnc3c(N[C@@H]4CCOC4)ncnc32)[C@H](O)[C@@H]1O` [TECADENOSON], the Ki (Adenosine receptor A2a [1]) is reported as 2320 nM and the Ki [2] is reported as 6.5 nM.
For `CCNc1nc(C#Cc2ccc(Cl)s2)nc2[nH]cnc12`, the inhibition at 10 µM (Adenosine receptor A2a [3]) was 18%, the Ki [4] was 1160 nM and the inhibition [5] was 32%. The Ki (D(1A) dopamine receptor) was 5110 nM and the Ki (Adenosine receptor A3 [6]) was 33.1 nM.
Work on `Clc1ccc(C#Cc2nc(NC3CCCC3)c3nc[nH]c3n2)s1` yielded a Ki [7] of 1490 nM, a Ki (Adenosine receptor A2a [1]) of 1340 nM and an EC50 (Adenosine receptor A3 [8]) of 276 nM. The Ki (Adenosine receptor A1) was 1120 nM and the Ki (Adenosine receptor A3 [6]) was 17.4 nM.
With `C[C@@]12C[C@@H]1[C@@H](n1cnc3c(NCCc4ccccc4)nc(C#Cc4ccccc4)nc31)[C@H](O)[C@@H]2O` the inhibition at 10 µM (Adenosine receptor A2a [3]) was 22%, the Ki (Adenosine receptor A3 [9]) was 480 nM and the Ki [10] was 1300 nM. The Ki [11] was 2800 nM, the Ratio Ki (Homo sapiens) was 24 and the inhibition at 10 µM (Adenosine receptor A2a [12]) was 13%. For the same compound, the inhibition [13] was 39%, the inhibition [5] was 30% and the Ki (Adenosine receptor A3 [6]) was 20 nM.
